Assays:
control whole blood = test: prior KRL test without hydrolysis: lysis by free radicals; assay type: cell-based
Protocol: This known method has been standardised using whole human or animal blood, which is diluted, instead of the above-stated erythrocytes isolated from whole blood. The standardised method has been successfully marketed under the name “KRL Test” (kit radicaux libres [=free radical kit]) in particular for determining (i) the antiradical defence capacity of a human, animal or plant cellular tissue, or (ii) the possible antiradical properties of a physical, chemical or biological agent. More specifically, the KRL test is performed by 1) bringing (a) previously diluted control whole blood into contact in an appropriate buffer medium with (b) an agent to be tested (in particular a cellular material, a substance or a composition) and (c) a free radical generator, 2) inducing release of the free radicals, 3) monitoring the lysis kinetics of the erythrocytes from the control whole blood by measuring the absorbance of the reaction medium, then 4) comparing said latter value with that of control whole blood determined under the same conditions without the agent to be tested.
(§1) Sulfated ferulic acid (I) consequently comprises a double antiradical reserve which is usable by hydrolysis. The antiradical activity of these products was determined according to the prior KRL test without hydrolysis, on the one hand, and according to the invention after hydrolysis, on the other hand. The results obtained are set out in Table I which illustrates the value of hydrolysis according to the invention. [drawing 5]

[1] = system: whole blood, erythrocytes or blood plasma; test: method of the invention: hydrolysis, then lysis by free radicals; assay type: cell-based; conditions: with hydrolysis according to the invention
Protocol: as §1
The method of the invention has been standardised for use with whole blood, erythrocytes or blood plasma as the second cellular material. […] The T½ value and the other parameters stated above are then determined. […]
The sample to be tested (50 μl), which contains or is associated with whole blood, with erythrocytes or, respectively, with plasma and if necessary is diluted, is introduced into the dilution solution (220 μl) placed in the wells of a microplate. Hydrolysis is performed, the free radical generator is introduced, release of the free radicals is initiated and the T½ value and said other parameters are determined according to the methods stated above.
In practice, it is recommended to use the following quantities of enzymes, where U denotes the international unit of the enzyme in question: • β-glucosidase at a final concentration of 11.11 U/ml (3 U/well), • sulfatase at a final concentration of 3 U/ml (0.8 U/well), and/or • β-glucuronidase at a final concentration of 2222.22 U/ml (600 U/well). Other advantages and characteristics of the invention will be better understood on reading the Examples and tests stated hereafter. […]

SMILES | Antiradical activity relative to ferulic acid, without hydrolysis (control whole blood) | Antiradical activity relative to ferulic acid, with hydrolysis [1]
O=C(O)/C=C/c1ccc(O)c(O)c1 [trans-caffeic acid (III), trans-caffeic acid] | 2.06 | 2.06
COc1cc(/C=C/C(=O)O)ccc1O [trans-ferulic acid (II), trans-ferulic acid] | 1.00 | 2.05
COc1cc(/C=C/C(=O)O)ccc1OS(=O)(=O)O [sulfated ferulic acid (I), sulfated ferulic acid] | 0.01 | 2.06

From patent US20060234329A1, “Method for determining the antiradical defense potential and use thereof, in particular in veterinary and human preventive therapeutics” (priority 2003, published 2006)
